Experiment: mn = molality of the nth substance listed, in mol/kg
Conditions: 84.5 kPa, Liquid; for speed of sound: Frequency=3 MHz, Sing-around technique in a fixed-path interferometer; for mass density: Vibrating tube method

CCCO [propan-1-ol] + O
Conditions	mass density, 288.15 K [kg/m3]	mass density, 293.15 K [kg/m3]	mass density, 298.15 K [kg/m3]	mass density, 303.15 K [kg/m3]	mass density, 308.15 K [kg/m3]	speed of sound, 288.15 K [m/s]	speed of sound, 293.15 K [m/s]	speed of sound, 298.15 K [m/s]	speed of sound, 303.15 K [m/s]	speed of sound, 308.15 K [m/s]
m1 = 0.01666	998.928	998.029	996.868	995.468	993.851	1467.6	1483.5	1497.7	1509.9	1520.5
m1 = 0.03333	998.757	997.859	996.698	995.295	993.677	1468.6	1484.5	1498.5	1510.7	1521.3
m1 = 0.0494	998.594	997.697	996.534	995.132	993.506	1469.5	1485.4	1499.3	1511.5	1521.9
m1 = 0.06674	998.419	997.52	996.356	994.954	993.328	1470.6	1486.4	1500.3	1512.3	1522.7
m1 = 0.08313	998.254	997.355	996.19	994.787	993.156	1471.7	1487.3	1501.1	1513.1	1523.3
m1 = 0.1002	998.081	997.18	996.013	994.609	992.983	1472.7	1488.3	1502	1513.8	1524
m1 = 0.134	997.747	996.843	995.676	994.267	992.634	1474.8	1490.1	1503.6	1515.4	1525.4
m1 = 0.1662	997.429	996.526	995.356	993.945	992.305	1476.8	1491.9	1505.3	1516.9	1526.8

From the NIST ThermoML archive (doi:10.1016/j.jct.2015.06.024)
